# Measurements published in publication PMC5513037, “Examining the influence of specificity ligands and ATP-competitive ligands on the overall effectiveness of bivalent kinase inhibitors” (Proteome Science, 2017).
# Assays:
# Experiment in all cases: KAM-matrix competition in K562 lysate;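 as to 0.001 uM KAM: median log10 fold change of treatment over DMSO control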;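 as to 0.01 uM KAM: median log10 fold change of treatment over DMSO control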;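 as to 0.1 uM KAM: median log10 fold change of treatment over DMSO control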;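 as to 1 uM KAM: median log10 fold change of treatment over DMSO control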;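 as to 10 uM KAM: median log10 fold change of treatment over DMSO control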
# Type in all cases: binding
# [1] = molecular target: T1, MAP3K7 (Homo sapiens, UniProt O43318)
# T1 construct: endogenous in cells; host or cells: K562 cells (lysate)
# T1 sequence (O43318 1-606): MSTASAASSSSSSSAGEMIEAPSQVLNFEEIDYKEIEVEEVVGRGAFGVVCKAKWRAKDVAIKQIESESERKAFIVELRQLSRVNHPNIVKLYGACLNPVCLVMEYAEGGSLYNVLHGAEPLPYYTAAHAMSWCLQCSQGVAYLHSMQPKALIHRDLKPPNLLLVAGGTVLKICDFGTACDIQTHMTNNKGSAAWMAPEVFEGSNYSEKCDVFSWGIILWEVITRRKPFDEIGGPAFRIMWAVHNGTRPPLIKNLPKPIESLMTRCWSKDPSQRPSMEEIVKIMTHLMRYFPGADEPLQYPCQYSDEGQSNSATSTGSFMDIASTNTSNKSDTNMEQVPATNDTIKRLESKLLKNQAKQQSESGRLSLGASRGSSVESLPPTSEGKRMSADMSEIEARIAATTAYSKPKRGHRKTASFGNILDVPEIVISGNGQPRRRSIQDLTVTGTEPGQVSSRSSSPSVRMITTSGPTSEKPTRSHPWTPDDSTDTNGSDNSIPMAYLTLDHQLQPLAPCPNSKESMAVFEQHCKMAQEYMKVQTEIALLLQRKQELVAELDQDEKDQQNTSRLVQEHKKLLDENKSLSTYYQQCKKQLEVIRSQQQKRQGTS
# Experimental: (§1) Supplement 12953_2017_125_MOESM1_ESM.zip/MS_Supp Info.xlsx, sheet "KAM" | column: 10 uM KAM; 1 uM KAM; 0.1 uM KAM; 0.01 uM KAM; 0.001 uM KAM; RB50
# [2] = molecular target: T2, STK16 (Homo sapiens, UniProt O75716)
# T2 construct: K562 cell pellets were thawed on ice and resuspended in cold Lysis buffer; endogenous in cells; host or cells: K562
# Experimental: as §1
# [3] = molecular target: T3, MAPK3 (Homo sapiens, UniProt P27361)
# T3 construct: endogenous in cells; host or cells: K562
# Experimental: as §1
# [4] = molecular target: T4, TYK2 (Homo sapiens, UniProt P29597)
# T4 construct: endogenous in cells; host or cells: K562
# Experimental: as §1
# [5] = molecular target: T5, MST1R (Homo sapiens, UniProt Q04912);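 as to 0.001 uM KAM: median log10 fold change of treatment over DMSO control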;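 as to 0.01 uM KAM: median log10 fold change of treatment over DMSO control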;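 as to 0.1 uM KAM: median log10 fold change of treatment over DMSO control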;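 as to 1 uM KAM: median log10 fold change of treatment over DMSO control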;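 as to 10 uM KAM: median log10 fold change of treatment over DMSO control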
# T5 construct: endogenous in cells; host or cells: K562
# Experimental: as §1
# [6] = molecular target: T6, MAPK1 (Homo sapiens, UniProt P28482)
# T6 construct: endogenous in cells; host or cells: K562
# Experimental: as §1
# [7] = molecular target: T7, ABL2 (Homo sapiens, UniProt P42684)
# T7 construct: endogenous in cells; host or cells: K562
# Experimental: as §1
# [8] = molecular target: T8, CAMKK1 (Homo sapiens, UniProt Q8N5S9)
# T8 construct: endogenous in cells; host or cells: K562
# Experimental: as §1
# [9] = molecular target: T9, HIPK3 (Homo sapiens, UniProt Q9H422);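 as to 0.001 uM KAM: median log10 fold change of treatment over DMSO control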;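 as to 0.01 uM KAM: median log10 fold change of treatment over DMSO control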;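 as to 0.1 uM KAM: median log10 fold change of treatment over DMSO control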;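 as to 1 uM KAM: median log10 fold change of treatment over DMSO control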;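 as to 10 uM KAM: median log10 fold change of treatment over DMSO control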
# T9 construct: endogenous in cells; host or cells: K562 cells (combined S0.8 and P0.8 lysate)
# Experimental: as §1
# [10] = molecular target: T10, CDK7 (Homo sapiens, UniProt P50613)
# T10 construct: endogenous in cells; host or cells: K562
# Experimental: as §1
# [11] = molecular target: T11, PRKCQ (Homo sapiens, UniProt Q04759)
# T11 construct: endogenous in cells; host or cells: K562
# Experimental: as §1
# [12] = molecular target: T12, MAP2K7 (Homo sapiens, UniProt O14733);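 as to 0.001 uM KAM: median log10 fold change of treatment over DMSO control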;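 as to 0.01 uM KAM: median log10 fold change of treatment over DMSO control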;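 as to 0.1 uM KAM: median log10 fold change of treatment over DMSO control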;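 as to 1 uM KAM: median log10 fold change of treatment over DMSO control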;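 as to 10 uM KAM: median log10 fold change of treatment over DMSO control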
# T12 construct: endogenous in cells; host or cells: K562
# T12 sequence (O14733 1-419): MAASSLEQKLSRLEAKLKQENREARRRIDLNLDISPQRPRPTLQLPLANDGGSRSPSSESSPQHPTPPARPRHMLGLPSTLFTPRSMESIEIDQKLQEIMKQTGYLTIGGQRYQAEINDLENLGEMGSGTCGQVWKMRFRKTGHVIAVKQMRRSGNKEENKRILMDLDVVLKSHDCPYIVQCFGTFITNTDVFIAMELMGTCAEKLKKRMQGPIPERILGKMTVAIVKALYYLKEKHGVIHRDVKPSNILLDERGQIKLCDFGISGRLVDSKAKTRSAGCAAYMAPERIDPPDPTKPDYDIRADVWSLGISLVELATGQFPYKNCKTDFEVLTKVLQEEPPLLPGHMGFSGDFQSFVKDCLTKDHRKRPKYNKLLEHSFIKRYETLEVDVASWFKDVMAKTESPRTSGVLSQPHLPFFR
# Experimental: as §1
# [13] = read-out: RB50 (the source's name)
# [14] = KAM 0.001-10 uM, read-out: RB50 (the source's name)
# T6 sequence (P28482 whole entry): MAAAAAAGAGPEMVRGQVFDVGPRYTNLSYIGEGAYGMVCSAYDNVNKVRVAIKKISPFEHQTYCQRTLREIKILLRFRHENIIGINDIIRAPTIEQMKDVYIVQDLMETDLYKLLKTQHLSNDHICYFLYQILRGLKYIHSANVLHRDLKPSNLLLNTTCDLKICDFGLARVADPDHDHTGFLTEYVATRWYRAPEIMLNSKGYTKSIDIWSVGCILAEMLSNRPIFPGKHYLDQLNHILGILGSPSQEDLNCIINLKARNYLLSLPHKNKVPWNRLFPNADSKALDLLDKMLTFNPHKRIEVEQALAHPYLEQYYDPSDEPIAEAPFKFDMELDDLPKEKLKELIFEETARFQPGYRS
# T2 sequence (O75716 whole entry): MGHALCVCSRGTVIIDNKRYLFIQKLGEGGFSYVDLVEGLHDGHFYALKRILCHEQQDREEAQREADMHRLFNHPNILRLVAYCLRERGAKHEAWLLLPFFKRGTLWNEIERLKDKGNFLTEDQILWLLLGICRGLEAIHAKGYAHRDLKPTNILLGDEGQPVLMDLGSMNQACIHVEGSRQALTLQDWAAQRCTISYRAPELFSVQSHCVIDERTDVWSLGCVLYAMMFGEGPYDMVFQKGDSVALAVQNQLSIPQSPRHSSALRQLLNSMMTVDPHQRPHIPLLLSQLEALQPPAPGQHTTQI
# T10 sequence (P50613 2-346 limits assumed): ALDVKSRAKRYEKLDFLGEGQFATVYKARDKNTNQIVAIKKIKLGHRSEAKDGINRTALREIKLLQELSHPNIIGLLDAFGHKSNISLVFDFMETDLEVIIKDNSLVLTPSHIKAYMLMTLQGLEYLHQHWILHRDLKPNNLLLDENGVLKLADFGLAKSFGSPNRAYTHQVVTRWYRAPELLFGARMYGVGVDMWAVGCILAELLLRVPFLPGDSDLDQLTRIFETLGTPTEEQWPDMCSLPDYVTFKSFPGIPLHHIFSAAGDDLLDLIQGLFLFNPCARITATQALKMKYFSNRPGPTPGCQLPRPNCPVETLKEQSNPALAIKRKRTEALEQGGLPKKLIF
# T10 sequence (P51946 whole entry partner): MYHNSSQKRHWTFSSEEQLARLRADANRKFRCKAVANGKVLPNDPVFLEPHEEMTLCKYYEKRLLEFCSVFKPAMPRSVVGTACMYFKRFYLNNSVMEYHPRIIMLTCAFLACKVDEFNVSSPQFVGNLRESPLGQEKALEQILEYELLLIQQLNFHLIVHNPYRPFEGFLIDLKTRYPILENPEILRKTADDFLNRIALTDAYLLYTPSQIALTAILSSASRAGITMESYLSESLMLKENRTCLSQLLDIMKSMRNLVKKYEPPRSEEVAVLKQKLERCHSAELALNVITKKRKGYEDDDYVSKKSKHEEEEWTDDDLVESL
# T10 sequence (P51948 whole entry partner): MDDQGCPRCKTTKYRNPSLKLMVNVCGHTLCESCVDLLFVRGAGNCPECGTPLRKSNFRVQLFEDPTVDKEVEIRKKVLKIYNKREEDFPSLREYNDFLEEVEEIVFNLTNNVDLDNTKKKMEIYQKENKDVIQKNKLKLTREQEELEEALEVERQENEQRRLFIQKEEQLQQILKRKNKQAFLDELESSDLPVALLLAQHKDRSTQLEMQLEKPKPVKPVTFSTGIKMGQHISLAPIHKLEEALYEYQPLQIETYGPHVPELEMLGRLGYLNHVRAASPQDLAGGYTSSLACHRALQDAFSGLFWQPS
# T7 sequence (P42684 whole entry): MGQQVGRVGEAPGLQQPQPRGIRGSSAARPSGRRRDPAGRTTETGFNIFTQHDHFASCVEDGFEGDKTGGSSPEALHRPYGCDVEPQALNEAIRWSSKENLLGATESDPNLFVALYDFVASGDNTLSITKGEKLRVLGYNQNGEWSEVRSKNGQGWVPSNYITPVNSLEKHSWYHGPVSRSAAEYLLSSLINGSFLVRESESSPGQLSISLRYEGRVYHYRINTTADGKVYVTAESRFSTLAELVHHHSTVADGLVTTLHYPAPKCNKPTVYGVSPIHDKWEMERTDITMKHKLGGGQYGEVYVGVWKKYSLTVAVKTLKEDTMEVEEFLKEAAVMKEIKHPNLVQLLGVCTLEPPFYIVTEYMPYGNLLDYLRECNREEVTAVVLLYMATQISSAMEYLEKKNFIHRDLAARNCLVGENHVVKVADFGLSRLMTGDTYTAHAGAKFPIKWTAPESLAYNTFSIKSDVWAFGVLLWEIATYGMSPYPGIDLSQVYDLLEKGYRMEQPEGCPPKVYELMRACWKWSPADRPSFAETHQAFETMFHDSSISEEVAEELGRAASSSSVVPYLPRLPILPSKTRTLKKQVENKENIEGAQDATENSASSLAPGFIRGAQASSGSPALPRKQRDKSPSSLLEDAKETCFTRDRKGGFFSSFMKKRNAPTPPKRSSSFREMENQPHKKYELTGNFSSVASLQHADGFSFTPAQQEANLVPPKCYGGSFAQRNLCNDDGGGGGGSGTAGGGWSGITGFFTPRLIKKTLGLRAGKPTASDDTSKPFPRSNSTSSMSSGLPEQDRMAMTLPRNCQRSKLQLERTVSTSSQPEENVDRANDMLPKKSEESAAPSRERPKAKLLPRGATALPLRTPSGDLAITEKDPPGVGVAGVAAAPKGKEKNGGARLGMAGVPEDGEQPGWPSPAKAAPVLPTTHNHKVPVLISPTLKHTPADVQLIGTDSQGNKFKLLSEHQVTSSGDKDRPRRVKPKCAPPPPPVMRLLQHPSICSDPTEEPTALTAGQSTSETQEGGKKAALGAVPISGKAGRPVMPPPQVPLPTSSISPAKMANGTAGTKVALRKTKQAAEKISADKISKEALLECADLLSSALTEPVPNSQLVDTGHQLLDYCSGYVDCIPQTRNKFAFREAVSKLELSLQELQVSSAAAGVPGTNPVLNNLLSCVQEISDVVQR
# T3 sequence (P27361 whole entry): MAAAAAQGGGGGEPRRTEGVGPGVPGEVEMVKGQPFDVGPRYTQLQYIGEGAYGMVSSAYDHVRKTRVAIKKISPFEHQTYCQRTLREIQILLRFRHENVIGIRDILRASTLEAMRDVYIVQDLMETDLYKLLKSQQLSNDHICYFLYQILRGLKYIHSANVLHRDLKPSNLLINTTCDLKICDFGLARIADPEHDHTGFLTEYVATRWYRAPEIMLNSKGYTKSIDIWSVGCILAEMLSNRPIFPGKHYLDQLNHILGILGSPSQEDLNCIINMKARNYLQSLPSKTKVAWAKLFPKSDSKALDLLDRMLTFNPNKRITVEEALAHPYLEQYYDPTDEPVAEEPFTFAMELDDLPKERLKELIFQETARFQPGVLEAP
# T11 sequence (Q04759 whole entry): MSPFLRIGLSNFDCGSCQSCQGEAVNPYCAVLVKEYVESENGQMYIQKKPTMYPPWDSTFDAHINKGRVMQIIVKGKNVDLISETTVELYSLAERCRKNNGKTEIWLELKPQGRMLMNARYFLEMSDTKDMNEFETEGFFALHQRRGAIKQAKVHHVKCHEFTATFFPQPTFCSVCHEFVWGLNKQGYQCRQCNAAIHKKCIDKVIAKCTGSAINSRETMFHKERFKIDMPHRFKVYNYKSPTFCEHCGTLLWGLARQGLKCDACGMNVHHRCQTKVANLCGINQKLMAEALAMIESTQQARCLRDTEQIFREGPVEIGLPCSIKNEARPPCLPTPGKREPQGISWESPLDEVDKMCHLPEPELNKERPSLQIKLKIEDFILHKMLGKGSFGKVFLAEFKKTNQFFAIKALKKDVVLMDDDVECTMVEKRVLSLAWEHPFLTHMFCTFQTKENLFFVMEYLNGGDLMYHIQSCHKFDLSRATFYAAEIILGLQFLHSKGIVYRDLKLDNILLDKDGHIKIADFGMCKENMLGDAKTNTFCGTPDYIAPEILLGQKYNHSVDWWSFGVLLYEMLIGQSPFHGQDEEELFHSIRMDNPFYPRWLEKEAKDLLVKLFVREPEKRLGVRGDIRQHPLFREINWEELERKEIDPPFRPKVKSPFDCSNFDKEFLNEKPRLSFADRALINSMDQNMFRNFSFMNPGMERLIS
# T8 sequence (Q8N5S9 whole entry): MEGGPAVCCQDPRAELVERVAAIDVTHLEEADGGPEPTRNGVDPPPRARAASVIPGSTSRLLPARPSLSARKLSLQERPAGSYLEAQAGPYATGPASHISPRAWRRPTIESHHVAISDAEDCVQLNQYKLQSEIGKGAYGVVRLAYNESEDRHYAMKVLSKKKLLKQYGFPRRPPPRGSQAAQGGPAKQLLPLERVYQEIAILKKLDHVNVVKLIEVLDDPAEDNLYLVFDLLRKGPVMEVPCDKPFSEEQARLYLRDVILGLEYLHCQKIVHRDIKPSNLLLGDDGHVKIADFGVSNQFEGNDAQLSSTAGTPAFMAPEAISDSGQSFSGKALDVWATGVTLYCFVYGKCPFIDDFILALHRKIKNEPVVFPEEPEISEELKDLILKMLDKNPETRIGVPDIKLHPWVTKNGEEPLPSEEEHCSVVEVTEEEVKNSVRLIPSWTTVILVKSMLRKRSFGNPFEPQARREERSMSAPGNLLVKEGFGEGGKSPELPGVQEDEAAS
smiles,measurement,setting,value
N#CCc1ccc(Nc2nc(NCCCN)cc(Nc3cc(C4CC4)[nH]n3)n2)cc1 [KAM],median Log10 fold change,[1]; 0.001 uM KAM,-0.02589
same,median Log10 fold change,[1]; 0.01 uM KAM,-0.01486
same,median Log10 fold change,[1]; 0.1 uM KAM,-0.1357
same,median Log10 fold change,[1]; 1 uM KAM,-0.3563
same,median Log10 fold change,[1]; 10 uM KAM,-0.511
same,IC50,[1]; [13],786 nM
same,median Log10 fold change,[2]; 0.001 uM KAM,-0.0101
same,median Log10 fold change,[2]; 0.01 uM KAM,-0.01878
same,median Log10 fold change,[2]; 0.1 uM KAM,-0.1698
same,median Log10 fold change,[2]; 1 uM KAM,-0.3768
same,median Log10 fold change,[2]; 10 uM KAM,-0.4318
same,IC50,[2]; [13],673 nM
same,median Log10 fold change,[3]; 0.001 uM KAM,-0.06334
same,median Log10 fold change,[3]; 0.01 uM KAM,-0.0563
same,median Log10 fold change,[3]; 0.1 uM KAM,-0.1467
same,median Log10 fold change,[3]; 1 uM KAM,-0.2435
same,median Log10 fold change,[3]; 10 uM KAM,-0.361
same,IC50,[3]; [13],2360 nM
same,median Log10 fold change,[4]; 0.001 uM KAM,-0.01748
same,median Log10 fold change,[4]; 0.01 uM KAM,-0.01468
same,median Log10 fold change,[4]; 0.1 uM KAM,-0.1723
same,median Log10 fold change,[4]; 1 uM KAM,-0.4058
same,median Log10 fold change,[4]; 10 uM KAM,-0.4958
same,IC50,[4]; [13],536 nM
same,IC50,[5]; [14],> 10000 nM
same,0.001 uM KAM,[5]; relative to 0 uM KAM = 0,-0.1284
same,0.01 uM KAM,[5]; relative to 0 uM KAM = 0,-0.04073
same,0.1 uM KAM,[5]; relative to 0 uM KAM = 0,-0.1983
same,1 uM KAM,[5]; relative to 0 uM KAM = 0,-0.07265
same,10 uM KAM,[5]; relative to 0 uM KAM = 0,-0.08067
same,median Log10 fold change,[6]; 0.001 uM KAM,-0.0422
same,median Log10 fold change,[6]; 0.01 uM KAM,-0.03333
same,median Log10 fold change,[6]; 0.1 uM KAM,-0.1132
same,median Log10 fold change,[6]; 1 uM KAM,-0.2315
same,median Log10 fold change,[6]; 10 uM KAM,-0.3482
same,IC50,[6]; [13],3180 nM
same,median Log10 fold change,[7]; 0.001 uM KAM,-0.03166
same,median Log10 fold change,[7]; 0.01 uM KAM,-0.02797
same,median Log10 fold change,[7]; 0.1 uM KAM,-0.1724
same,median Log10 fold change,[7]; 1 uM KAM,-0.2861
same,median Log10 fold change,[7]; 10 uM KAM,-0.4205
same,IC50,[7]; [13],1220 nM
same,median Log10 fold change,[8]; 0.001 uM KAM,-0.02592
same,median Log10 fold change,[8]; 0.01 uM KAM,-0.02355
same,median Log10 fold change,[8]; 0.1 uM KAM,-0.2718
same,median Log10 fold change,[8]; 1 uM KAM,-0.415
same,median Log10 fold change,[8]; 10 uM KAM,-0.4583
same,IC50,[8]; [13],248 nM
same,IC50,[9]; [14],> 10000 nM
same,0.001 uM KAM,[9]; relative to 0 uM KAM = 0,-0.01362
same,0.01 uM KAM,[9]; relative to 0 uM KAM = 0,-0.04323
same,0.1 uM KAM,[9]; relative to 0 uM KAM = 0,-0.04392
same,1 uM KAM,[9]; relative to 0 uM KAM = 0,-0.1209
same,10 uM KAM,[9]; relative to 0 uM KAM = 0,-0.16
same,median Log10 fold change,[10]; 0.001 uM KAM,-0.0273
same,median Log10 fold change,[10]; 0.01 uM KAM,-0.01722
same,median Log10 fold change,[10]; 0.1 uM KAM,-0.1187
same,median Log10 fold change,[10]; 1 uM KAM,-0.275
same,median Log10 fold change,[10]; 10 uM KAM,-0.3928
same,IC50,[10]; [13],1660 nM
same,median Log10 fold change,[11]; 0.001 uM KAM,-0.05924
same,median Log10 fold change,[11]; 0.01 uM KAM,-0.02167
same,median Log10 fold change,[11]; 0.1 uM KAM,-0.1204
same,median Log10 fold change,[11]; 1 uM KAM,-0.1965
same,median Log10 fold change,[11]; 10 uM KAM,-0.3734
same,IC50,[11]; [13],3600 nM
same,IC50,[12]; [14],> 10000 nM
same,0.001 uM KAM,[12]; relative to 0 uM KAM = 0,0.00178
same,0.01 uM KAM,[12]; relative to 0 uM KAM = 0,-0.02319
same,0.1 uM KAM,[12]; relative to 0 uM KAM = 0,-0.04803
same,1 uM KAM,[12]; relative to 0 uM KAM = 0,-0.07056
same,10 uM KAM,[12]; relative to 0 uM KAM = 0,-0.08653
